Measured values taken from US20260028365A1 (BIOGEN MA INC., priority 2022, published 2026).
pIC50: −log10 of the molar value. Where two headings read alike, the source gives them in different places.

Experiments:
[1] = target: JH2 domain of human Tyk2 (Homo sapiens (Human), UniProt P29597); assay: JH2 Biochemical Assay (TR-FRET probe displacement); type: binding
[2] = target: Tyk2 (Homo sapiens (Human), UniProt P29597); assay: pSTAT4 Cell Assay (MSD, NK92 cells); type: cell-based
[3] = TR-FRET probe displacement, JH2 domain
[4] = JH2 domain of human Tyk2, TR-FRET probe displacement
[5] = TR-FRET probe displacement, JH2 domain of human Tyk2

Tyk2, sequence (P29597 whole entry, the tested form may be a part): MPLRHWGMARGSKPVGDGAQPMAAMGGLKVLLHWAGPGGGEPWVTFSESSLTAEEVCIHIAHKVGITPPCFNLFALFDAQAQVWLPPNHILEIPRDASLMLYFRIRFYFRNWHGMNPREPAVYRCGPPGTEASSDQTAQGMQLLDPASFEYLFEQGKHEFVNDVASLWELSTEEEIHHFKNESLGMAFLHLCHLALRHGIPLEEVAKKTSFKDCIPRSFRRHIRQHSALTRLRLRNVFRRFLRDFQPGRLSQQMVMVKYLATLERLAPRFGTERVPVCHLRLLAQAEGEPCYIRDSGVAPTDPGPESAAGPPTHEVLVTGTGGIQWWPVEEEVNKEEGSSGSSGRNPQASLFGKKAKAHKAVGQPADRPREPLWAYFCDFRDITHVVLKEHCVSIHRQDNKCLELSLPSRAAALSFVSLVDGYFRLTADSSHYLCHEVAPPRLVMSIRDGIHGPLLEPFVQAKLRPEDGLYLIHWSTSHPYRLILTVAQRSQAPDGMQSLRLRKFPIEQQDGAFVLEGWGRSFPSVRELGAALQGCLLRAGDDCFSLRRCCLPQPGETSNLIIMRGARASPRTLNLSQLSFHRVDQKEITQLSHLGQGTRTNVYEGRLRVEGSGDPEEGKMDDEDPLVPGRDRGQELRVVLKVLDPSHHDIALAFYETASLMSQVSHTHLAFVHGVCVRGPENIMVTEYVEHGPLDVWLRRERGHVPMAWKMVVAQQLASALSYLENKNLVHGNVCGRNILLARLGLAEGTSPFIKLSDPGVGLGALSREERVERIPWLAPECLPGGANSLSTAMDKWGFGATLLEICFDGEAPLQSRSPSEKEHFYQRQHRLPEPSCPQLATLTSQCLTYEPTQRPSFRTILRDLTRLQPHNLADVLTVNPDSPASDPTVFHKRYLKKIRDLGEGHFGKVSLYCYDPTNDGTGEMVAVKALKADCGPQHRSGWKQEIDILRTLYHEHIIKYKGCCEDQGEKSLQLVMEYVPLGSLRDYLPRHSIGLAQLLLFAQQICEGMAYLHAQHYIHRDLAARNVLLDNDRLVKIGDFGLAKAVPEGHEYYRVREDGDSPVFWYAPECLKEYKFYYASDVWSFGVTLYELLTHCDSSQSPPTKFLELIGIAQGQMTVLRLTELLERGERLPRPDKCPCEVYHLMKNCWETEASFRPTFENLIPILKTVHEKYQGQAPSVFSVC
JH2 domain of human Tyk2, sequence (P29597 575-876): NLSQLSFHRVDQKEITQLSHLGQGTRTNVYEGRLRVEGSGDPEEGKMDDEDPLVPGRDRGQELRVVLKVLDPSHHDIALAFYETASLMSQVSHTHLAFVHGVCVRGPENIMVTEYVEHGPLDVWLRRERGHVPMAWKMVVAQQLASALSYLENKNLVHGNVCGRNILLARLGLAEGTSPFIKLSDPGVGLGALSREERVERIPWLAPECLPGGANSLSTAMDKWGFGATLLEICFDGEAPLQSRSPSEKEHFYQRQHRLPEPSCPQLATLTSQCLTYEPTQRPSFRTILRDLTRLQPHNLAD

Question: CC(=O)Nc1cc(Nc2cc(C)nc(C(C)(F)F)n2)c(-c2ccc3c(n2)OCC(C)(C)O3)cn1 [Example 813, N-(4-((2-(1,1-difluoroethyl)-6-methylpyrimidin-4-yl)amino)-5-(2,2-dimethyl-2,3-dihydro-[1,4]dioxino[2,3-b]pyridin-6-yl)pyridin-2-yl)acetamide] was tested. Which pIC50 [1, 3] did it give?
Answer: The pIC50 was at least 8.00.

Question: What about the pIC50 [2] of the same molecule?
Answer: Its pIC50 is at least 8.00.

Question: Which results are given for CC(=O)Nc1cc(Nc2cc(C)nc(C(C)(F)F)n2)c(OCC2CC(=O)N(C)C2)cn1 (stereo not drawn) [Example 511, N-(4-((2-(1,1-difluoroethyl)-6-methylpyrimidin-4-yl)amino)-5-((1-methyl-5-oxopyrrolidin-3-yl)methoxy)pyridin-2-yl)acetamide]?
Answer: pIC50 [1, 4]: 7.00 to 8.00; pIC50 ([2]; MSD): 6.00 to 7.00

Question: COc1cc(COc2cnc(NC(C)=O)cc2Nc2cc(C)nc(C(C)(F)F)n2)on1 [Example 322, N-(4-((2-(1,1-difluoroethyl)-6-methylpyrimidin-4-yl)amino)-5-((3-methoxyisoxazol-5-yl)methoxy)pyridin-2-yl)acetamide] was tested. Which pIC50 [1, 5] did it give?
Answer: The pIC50 was at least 8.00.

Question: And the pIC50 ([2]; MSD)?
Answer: Its pIC50 is 7.00 to 8.00.

Question: How did the pIC50 [1, 5] turn out when CCc1cc(Nc2cc(NC(C)=O)ncc2OCCN2CCOCC2)nc(C(C)(F)F)n1 [Example 70, N-(4-((2-(1,1-difluoroethyl)-6-ethylpyrimidin-4-yl)amino)-5-(2-morpholinoethoxy)pyridin-2-yl)acetamide] was run?
Answer: Its pIC50 is at least 8.00.

Question: What about the pIC50 ([2]; MSD) of the same molecule?
Answer: Its pIC50 is at least 8.00.

Question: Which results are given for CC(=O)Nc1cc(Nc2ccnc(C(C)(F)F)n2)c(-c2ccnc(C)n2)cn1 [Example 173, N-(4-((2-(1,1-difluoroethyl)pyrimidin-4-yl)amino)-5-(2-methylpyrimidin-4-yl)pyridin-2-yl)acetamide]?
Answer: pIC50 [1, 5]: ≥ 8.00; pIC50 ([2]; MSD): ≥ 8.00

Question: What does the source list for CC(=O)Nc1cc(Nc2ccnc(C(C)(F)F)n2)c(-c2cnc(N3CCOCC3)cn2)cn1 [Example 844, N-(4-((2-(1,1-difluoroethyl)pyrimidin-4-yl)amino)-5-(5-morpholinopyrazin-2-yl)pyridin-2-yl)acetamide]?
Answer: pIC50 [1, 3]: ≥ 8.00; pIC50 [2]: 7.00 to 8.00

Question: What does the source list for CC(=O)Nc1cc(Nc2cc(OC3CC3)nc(C(C)(F)F)n2)c(OCc2ccc(F)c(F)c2)cn1 [Example 349, N-(4-((6-cyclopropoxy-2-(1,1-difluoroethyl)pyrimidin-4-yl)amino)-5-((3,4-difluorobenzyl)oxy)pyridin-2-yl)acetamide]?
Answer: pIC50 [1, 5]: ≥ 8.00; pIC50 ([2]; MSD): ≥ 8.00

Question: CCn1cc(-c2cc(Nc3cc(NC(C)=O)ncc3OC)nc(C(C)(F)F)n2)cn1 [Example 97, N-(4-((2-(1,1-difluoroethyl)-6-(1-ethyl-1H-pyrazol-4-yl)pyrimidin-4-yl)amino)-5-methoxypyridin-2-yl)acetamide] was tested. Which pIC50 [1, 5] did it give?
Answer: The pIC50 was 7.00 to 8.00.

Question: What about the pIC50 ([2]; MSD) of the same molecule?
Answer: The pIC50 was 7.00 to 8.00.

Question: With CC(=O)Nc1cc(Nc2cc(C)nc(C(C)(F)F)n2)c(-c2nc(C)cc(C#N)n2)cn1 [Example 657, N-(5-(4-cyanO6-methylpyrimidin-2-yl)-4-((2-(1,1-difluoroethyl)-6-methylpyrimidin-4-yl)amino)pyridin-2-yl)acetamide] as the molecule, how does the pIC50 [1, 4] read?
Answer: The pIC50 was 7.00 to 8.00.

Question: And the pIC50 ([2]; MSD)?
Answer: The pIC50 was 6.00 to 7.00.

Question: CCC(COc1cnc(NC(C)=O)cc1Nc1cc(C)nc(C(C)(F)F)n1)OC (stereo not drawn) [Example 424, N-(4-((2-(1,1-difluoroethyl)-6-methylpyrimidin-4-yl)amino)-5-(2-methoxybutoxy)pyridin-2-yl)acetamide] was tested. Which pIC50 [1, 4] did it give?
Answer: Its pIC50 is at least 8.00.

Question: And the pIC50 ([2]; MSD)?
Answer: The pIC50 was 7.00 to 8.00.

Question: Which results are given for CC(=O)Nc1cc(Nc2cc(C)nc(C(C)(F)F)n2)c(-c2cccc(C(C)O)n2)cn1 (racemic) [Example 638, rac-(R)-N-(4′-((2-(1,1-difluoroethyl)-6-methylpyrimidin-4-yl)amino)-6-(1-hydroxyethyl)-[2,3′-bipyridin]-6′-yl)acetamide]?
Answer: pIC50 [1, 4]: ≥ 8.00; pIC50 ([2]; MSD): ≥ 8.00

Question: Which results are given for CC(=O)Nc1cc(Nc2cc(OC3CC3)nc(C(C)(F)F)n2)c(F)cn1 [Example 818, N-(4-((6-cyclopropoxy-2-(1,1-difluoroethyl)pyrimidin-4-yl)amino)-5-fluoropyridin-2-yl)acetamide]?
Answer: pIC50 [1, 3]: ≥ 8.00; pIC50 [2]: 6.00 to 7.00
